Test results: patent publication US11981669B2, “1,7-naphthyridine derivative and preparation method and use therefor” (CSPC ZHONGQI PHARMACEUTICAL TECHNOLOGY (SHIJIAZHUANG) CO., …, priority 2018, dated 2024)
pIC50: −log10 of the molar value. Marks after values point to notes of the source that are not given here.

Experiments:
[1] = molecular target: PHD2 (Homo sapiens (Human), UniProt Q9GZT9); experiment: PHD enzyme assay (Eu-VBC TR-fluorescence); assay type: biochemical
Description: VHL/elongin B/elongin C were constructed, expressed and purified, and VHL was labeled. PHD1, PHD2 and PHD3 were constructed, expressed and purified. VBC protein was labeled with DELFIA Eu-Labeling Kit. A NeutrAvidin 96-well plate was blocked after the addition of 200 μL Blocker Casein to each well, followed by incubation for 30 min. Each well was washed 3 times by adding 200 μL of washing buffer each time. […] Each well was washed 3 times by adding 200 μL of washing buffer each time. A 1 mM Biotin solution was prepared with Blocker Casein, and 100 μL of the solution was added to each well, followed by incubation for 30 min. Each well was washed 3 times by adding 200 μL of washing buffer each time. A 20× compound solution was prepared with PHD reaction buffer, with the final concentration of DMSO being 1%. […] After mixing homogeneously, the wells were incubated for 60 min. Each well was washed 3 times by adding 200 μL of washing buffer each time A 1 ng/μL Eu-VBC solution was prepared with Eu-VBC binding buffer, and 100 μL of the solution was added to each well, followed by incubation for 60 min. Each well was washed 6 times by adding 200 μL DELFIA Wash Concentrate each time. 100 μL DELFIA Enhancement Solution was added to each well. […] The flurescence of the sample wells was recorded as FLUsample, the flurescence of the full active wells was recorded as FLU100%, and the flurescence of the blank well was recorded as FLU0%.

[2] = system: erythropoietin; experiment: Expression of erythropoietin in vivo (plasma EPO ELISA after single oral dose); details: once; for EPO OD value: plasma 6 hours after administration; for Promotion of expression of erythropoietin in vivo: at 10 mg/kg;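 on all read-outs here: male C57 mice given compound by mouth, five animals per treatment group, with EPO in plasma measured by ELISA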
Description: (2) 30 c57 mice, male, were divided into 6 groups, 5 mice in each treatment group. […] 6 hours after the administration, blood was taken, and plasma was collected for EPO detection with an ELISA kit (R&D Co.).

[3] = molecular target: PHD1 (Homo sapiens (Human), UniProt Q96KS0); experiment: PHD enzyme assay (Eu-VBC TR-fluorescence); assay type: biochemical
Description: (§1) VHL/elongin B/elongin C were constructed, expressed and purified, and VHL was labeled. PHD1, PHD2 and PHD3 were constructed, expressed and purified. VBC protein was labeled with DELFIA Eu-Labeling Kit. A NeutrAvidin 96-well plate was blocked after the addition of 200 μL Blocker Casein to each well, followed by incubation for 30 min. Each well was washed 3 times by adding 200 μL of washing buffer each time. A 200 nM HIF-1a 556-574 solution was prepared with washing buffer, and 100 μL of the solution was added to each well, followed by incubation for 60 min. Each well was washed 3 times by adding 200 μL of washing buffer each time. A 1 mM Biotin solution was prepared with Blocker Casein, and 100 μL of the solution was added to each well, followed by incubation for 30 min. Each well was washed 3 times by adding 200 μL of washing buffer each time. A 20× compound solution was prepared with PHD reaction buffer, with the final concentration of DMSO being 1%. PHD solutions were prepared with PHD reaction buffer, and the concentrations of PHD1, 2, and 3 solutions were 10 ng/μL, 5 ng/μL, and 15 ng/μL, respectively. 95 μL of the PHD solution was added to each compound well, followed by the addition of 5 μL of the compound solution, 95 μL of the PHD solution was added to each full active well, followed by the addition of 5 μL of the PHD reaction buffer; and 100 μL of the PHD reaction buffer was added to each blank well. After mixing homogeneously, the wells were incubated for 60 min. Each well was washed 3 times by adding 200 μL of washing buffer each time A 1 ng/μL Eu-VBC solution was prepared with Eu-VBC binding buffer, and 100 μL of the solution was added to each well, followed by incubation for 60 min. Each well was washed 6 times by adding 200 μL DELFIA Wash Concentrate each time. 100 μL DELFIA Enhancement Solution was added to each well. A microplate reader was used to read TR-Fluorescence at Ex340 and Em615. The flurescence of the sample wells was recorded as FLUsample, the flurescence of the full active wells was recorded as FLU100%, and the flurescence of the blank well was recorded as FLU0%.

[4] = molecular target: PHD3 (Homo sapiens (Human), UniProt Q9H6Z9); experiment: PHD enzyme assay (Eu-VBC TR-fluorescence); assay type: biochemical
Description: as §1

[5] = molecular target: hERG channels (Homo sapiens (Human), UniProt Q12809); experiment: cell-based; assay type: cell-based; details: for Inhibitory effect on hERG current at the highest test concentration: human, 30 μM
Description: Whole-cell patch clamp technique was used to record hERG current. A cell suspension was added to a 35 mm Petri dish, and the dish was then placed on an inverted microscope stage. After the adherence of cells, they were perfused with extracellular fluid at a flow rate of 1-2 mL/min. A glass microelectrode was drawn by a microelectrode puller in two steps, and the pipette tip resistance was between 2-5 MΩ. After establishing the whole cell recording, the clamp potential was held at −80 mV, followed by depolarization to +60 mV when given voltage stimulation and then repolarization to −50 mV to elicit hERG tail current. All recordings were performed after the current was stable. Extracellular perfusion administration started from a low concentration, staying for 5-10 min at each concentration until the current was stable, and then cells were further perfused with the next concentration.

[6] = system: rats with residual kidney; experiment: SD rat residual kidney experiment; assay type: in vivo, SD rats; set-up: Hematocrit / Alanine aminotransferase / Glutamic-oxalacetic transaminase: unit not given here; details: for Red blood cells / Alanine aminotransferase / Glutamic-oxalacetic transaminase / Hematocrit / Hemoglobin / Hepcidin: three times each week, 15 times, x ± sd; for Red blood cells: blood 24 hours after last administration; for Effect on glutamic-oxalacetic transaminase / Effect on liver glutamic-pyruvic aminotransferase: compared with the blank control group
Description: 79 SD rats were subjected to residual kidney surgery after anesthesia (left kidney was resected, one third of the right kidney was left, and the resected kidney part was weighed to confirm the surgical error). After 4 weeks, 45 surviving rats were subjected to blood cell dection and then assigned according to the HCT value 37 rats in good condition were selected and divided into the following groups: Link-118 (5, 10 mg/kg), Link-121 (5, 10 mg/kg), and FG-4592 (10 mg/kg), 6 rats in each treatment group, and 7 in the model group. 4 rats were assigned to the blank control group. The rats were administered three times each week (administered on Monday, Wednesday, and Friday), for 15 times, and blood was taken 24 hours after the last administration (tested by blood routine, blood biochemistry, hepcidin kit).

PHD2, sequence (Q9GZT9 whole entry): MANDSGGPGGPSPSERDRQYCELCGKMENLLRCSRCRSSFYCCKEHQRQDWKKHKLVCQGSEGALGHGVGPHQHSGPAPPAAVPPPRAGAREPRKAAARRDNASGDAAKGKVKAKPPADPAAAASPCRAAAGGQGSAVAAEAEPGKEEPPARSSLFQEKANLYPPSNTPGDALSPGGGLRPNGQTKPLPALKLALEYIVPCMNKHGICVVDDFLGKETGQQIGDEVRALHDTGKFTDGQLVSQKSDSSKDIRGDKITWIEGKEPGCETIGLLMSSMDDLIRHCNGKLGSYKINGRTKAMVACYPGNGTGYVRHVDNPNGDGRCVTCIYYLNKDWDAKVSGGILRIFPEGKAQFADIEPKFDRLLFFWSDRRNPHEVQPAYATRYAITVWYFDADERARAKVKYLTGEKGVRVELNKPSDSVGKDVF
PHD3, sequence (Q9H6Z9 whole entry): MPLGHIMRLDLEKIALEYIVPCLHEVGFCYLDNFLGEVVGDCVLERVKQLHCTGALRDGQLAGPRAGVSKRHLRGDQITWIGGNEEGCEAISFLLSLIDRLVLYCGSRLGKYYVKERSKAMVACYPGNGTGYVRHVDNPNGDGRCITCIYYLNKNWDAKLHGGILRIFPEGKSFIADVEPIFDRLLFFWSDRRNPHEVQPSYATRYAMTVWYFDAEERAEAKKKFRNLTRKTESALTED
PHD1, sequence (Q96KS0 whole entry): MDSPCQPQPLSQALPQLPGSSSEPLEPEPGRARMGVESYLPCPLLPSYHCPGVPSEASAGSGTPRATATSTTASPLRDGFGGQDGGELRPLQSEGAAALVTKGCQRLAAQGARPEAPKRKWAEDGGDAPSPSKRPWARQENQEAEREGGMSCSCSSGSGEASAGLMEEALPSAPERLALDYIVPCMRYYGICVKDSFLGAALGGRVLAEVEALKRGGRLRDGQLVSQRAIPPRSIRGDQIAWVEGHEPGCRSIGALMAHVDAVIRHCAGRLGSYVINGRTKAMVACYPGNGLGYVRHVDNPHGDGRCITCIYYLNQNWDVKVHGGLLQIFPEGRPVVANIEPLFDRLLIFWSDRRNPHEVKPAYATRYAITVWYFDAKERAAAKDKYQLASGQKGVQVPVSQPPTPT
hERG channels, sequence (Q12809 whole entry, the tested form may be a part): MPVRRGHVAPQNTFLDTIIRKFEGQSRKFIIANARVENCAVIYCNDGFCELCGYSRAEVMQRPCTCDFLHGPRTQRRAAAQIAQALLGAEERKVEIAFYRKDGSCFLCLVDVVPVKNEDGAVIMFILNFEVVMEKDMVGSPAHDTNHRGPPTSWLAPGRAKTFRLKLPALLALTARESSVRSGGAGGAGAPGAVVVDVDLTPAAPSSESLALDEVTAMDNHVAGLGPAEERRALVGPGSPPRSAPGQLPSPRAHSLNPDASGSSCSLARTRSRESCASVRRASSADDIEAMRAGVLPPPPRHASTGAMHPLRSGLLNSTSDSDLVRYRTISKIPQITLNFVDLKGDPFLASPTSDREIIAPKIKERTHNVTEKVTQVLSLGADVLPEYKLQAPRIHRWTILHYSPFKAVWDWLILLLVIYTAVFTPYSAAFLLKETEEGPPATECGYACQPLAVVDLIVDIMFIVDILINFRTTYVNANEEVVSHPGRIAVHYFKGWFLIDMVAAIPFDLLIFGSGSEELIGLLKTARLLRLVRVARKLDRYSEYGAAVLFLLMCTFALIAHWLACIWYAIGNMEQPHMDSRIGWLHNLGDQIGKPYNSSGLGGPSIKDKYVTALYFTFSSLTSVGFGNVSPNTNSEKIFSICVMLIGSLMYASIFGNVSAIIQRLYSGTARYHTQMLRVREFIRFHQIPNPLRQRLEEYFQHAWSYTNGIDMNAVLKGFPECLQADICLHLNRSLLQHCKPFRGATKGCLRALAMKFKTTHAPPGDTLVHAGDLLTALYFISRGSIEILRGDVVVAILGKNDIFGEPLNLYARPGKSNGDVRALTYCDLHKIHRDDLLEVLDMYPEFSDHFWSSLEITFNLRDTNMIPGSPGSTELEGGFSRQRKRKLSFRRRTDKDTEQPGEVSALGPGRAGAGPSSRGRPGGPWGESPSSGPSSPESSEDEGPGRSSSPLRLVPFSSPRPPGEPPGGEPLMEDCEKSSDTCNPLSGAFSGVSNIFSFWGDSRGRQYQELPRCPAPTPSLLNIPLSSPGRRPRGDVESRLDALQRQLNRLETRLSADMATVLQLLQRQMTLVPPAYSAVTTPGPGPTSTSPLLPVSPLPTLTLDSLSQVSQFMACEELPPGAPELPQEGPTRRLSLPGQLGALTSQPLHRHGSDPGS

Compound	Effect on PHD2 compared with compounds of Comparative Examples 1-3 [1]	IC50 [1] [nM]	EPO OD value ([2]; 10 mg/kg)	EPO OD value ([2]; 50 mg/kg)	Promotion of expression of erythropoietin in vivo [2]	Effect on PHD1 compared with compounds of Comparative Examples 1-3 [3]	IC50 [3] [nM]	Effect on PHD3 compared with compounds of Comparative Examples 1-3 [4]	IC50 [4] [nM]	pIC50 [5]	Inhibitory effect on hERG current at the highest test concentration [5]	Red blood cells ([6]; 5 mg/kg)	Alanine aminotransferase ([6]; 5 mg/kg)	Glutamic-oxalacetic transaminase ([6]; 5 mg/kg)	Hematocrit ([6]; 5 mg/kg)	Hemoglobin ([6]; 5 mg/kg) [g/L]	Hepcidin ([6]; 5 mg/kg) [ng/mL]	Red blood cells ([6]; 10 mg/kg)	Alanine aminotransferase ([6]; 10 mg/kg)	Glutamic-oxalacetic transaminase ([6]; 10 mg/kg)	further results
O=C(O)CNC(=O)c1nc(Cl)c2nc(Oc3ccccc3)ccc2c1O [Link-118, 2-(2-phenoxy-5-hydroxy-8-chloro-1,7-naphthyridine-6-formamido) Acetic Acid]	better effect	207	D (D represents EPO OD value>3)	D (D represents EPO OD value>3)	significantly promote the expression of erythropoietin	better effect	46.9	better effect	72.8	< 4.52	far from the IC50 value	8.05 ± 0.46** 10^12/L	37.83 ± 1.60	116.50 ± 14.43	45.88 ± 2.87	164 ± 10.99	2.5808 ± 1.0573	9.61 ± 1.06** 10^12/L	35.50 ± 6.28	113.67 ± 2123	Hematocrit ([6]; 10 mg/kg): 57.2 ± 6.67; Hemoglobin ([6]; 10 mg/kg): 203.83 ± 22.83 g/L; Hepcidin ([6]; 10 mg/kg): 2.4472 ± 0.513 ng/mL; Effect on glutamic-oxalacetic transaminase [6]: no significant effect; Effect on liver glutamic-pyruvic aminotransferase [6]: no significant effect; Effect on HCT in rats with residual kidney ([6]; compared with the model group): significantly increase; Effect on HGB in rats with residual kidney ([6]; compared with the model group): significantly increase; Effect on RBC in rats with residual kidney ([6]; compared with the model group): significantly increase; Effect on hepcidin in rats with residual kidney ([6]; compared with the model group): significantly inhibit; Efficacy compared with FG-4592 at the same dose ([6]; rats with residual kidney): better than that of FG-4592
O=C(O)CNC(=O)c1nc(Br)c2nc(Oc3ccccc3)ccc2c1O [Link-121, 2-(2-phenoxy-5-hydroxy-8-bromo-1,7-naphthyridine-6-formamido) Acetic Acid]	better effect	353	C (C represents 2<EPO OD value<3)	D (D represents EPO OD value>3)	significantly promote the expression of erythropoietin	better effect	40.3	better effect	95.6	< 4.52	far from the IC50 value	7.68 ± 0.46 10^12/L	56.40 ± 25.89	130.80 ± 3126	43 ± 2.26	150.60 ± 8.62	2.8289 ± 0.7597	8.12 ± 1.11 10^12/L	47.5 ± 7.23	12125 ± 16.11	Hematocrit ([6]; 10 mg/kg): 46.86 ± 629; Hemoglobin ([6]; 10 mg/kg): 163.40 ± 24.44 g/L; Hepcidin ([6]; 10 mg/kg): 2.5494 ± 1.3532 ng/mL; Effect on glutamic-oxalacetic transaminase [6]: no significant effect; Effect on liver glutamic-pyruvic aminotransferase [6]: no significant effect; Effect on HCT in rats with residual kidney ([6]; compared with the model group): significantly increase; Effect on HGB in rats with residual kidney ([6]; compared with the model group): significantly increase; Effect on hepcidin in rats with residual kidney ([6]; compared with the model group): reduced
